What all share (assay type): cell-based, human
In assay [1] the test system is 5637 parental cell line (P0). The assay can be described thus: MTT cell viability after gemcitabine treatment, parental cell line. The note with it: C of FIG. 1. The method, then: (§1) For cell proliferation analysis, 1×10^3 cells were seeded in a 96-well plate and cultured for 24 hours. Thereafter, the cells were treated with 1 μM GEM for 0, 24, 48, and 72 hours, and cell viability was measured at each time point. The cells were then treated with thiazolyl blue tetrazolium bromide (MTT) (Sigma-Aldrich, St. Louis, MO, USA) and reacted for 1 hour. After the reaction was completed, the medium containing MTT was fully removed, and MTT formazan was dissolved using dimethyl sulfoxide (DMSO, Duchefa Biochemie, BH Haarlem, Netherlands). Thereafter, the absorbance was measured at 540 nm using a spectrophotometer microplate reader (Victor 3).

Assay [2] has as its system GRCB cell lines (gemcitabine-resistant 5637). The assay can be described thus: MTT cell viability / IC50 for gemcitabine, GRCB cell lines. How it is done: (§2) To analyze stepwise molecular mechanisms occurring during a process of anticancer drug resistance in bladder cancer patients, bladder cancer cell lines having resistance to gemcitabine (GEM) as a representative anticancer drug for bladder cancer were constructed. Specifically, five candidate groups A to E of the 5637 cell line were treated with 5 μM GEM (Eli Lilly and company, IN, USA) and cultured for 3 days. Thereafter, the residual cells were washed with phosphate-buffered saline (PBS) and replaced with a new medium. The process was repeated until the cells recovered to 90% confluency, and after each stage was completed, several cell stocks in the same state were stored in liquid nitrogen. Thereafter, the recovered cells were inoculated in a plate and additionally treated with GEM. A total of 15-phase GEM-resistant bladder cancer cell lines were constructed using the method, which were named GRCA, GRCB, GRCC, GRCD, and GRCE according to each group.
as §1

Assay [3] concerns GRCA cell lines (gemcitabine-resistant 5637). The assay can be described thus: MTT cell viability / IC50 for gemcitabine, GRCA cell lines. How it is done: as §2, §1
Setting [4] is: P15 cell line, compared to other candidate groups, C of FIG. 1.

One molecule from patent US20260258500A1, “BIOMARKER FOR METASTATIC BLADDER CANCER” (DONG-A UNIVERSITY RESEARCH FOUNDATION FOR INDUSTRY-ACADEMY …, priority 2022, published 2026) can be followed below.

With `Nc1ccn([C@@H]2O[C@H](CO)[C@@H](O)C2(F)F)c(=O)n1` [GEM, gemcitabine], the “Resistance to GEM (cell viability)” value in assay [1] was “sensitive”; in assay [2] (setting [4]), “significantly highly resistant”; in assay [3] (setting [4]), “significantly highly resistant”. Also, the “IC50 values for GEM” value is given as “increased in a phase-dependent manner” in assay [2] (P0, P3, P7, P15 cell lines, B of FIG. 2) and “increased in a phase-dependent manner” in assay [3] (P0, P3, P7, P15 cell lines, A of FIG. 2). The “Resistance to GEM across stages” value in assay [2] (stages P0, P2, P3, P5, P7, P10, P15, E of FIG. 1) is “increased in a phase-dependent manner”; in assay [3] (stages P0, P2, P3, P5, P7, P10, P15, D of FIG. 1), “increased in a phase-dependent manner”.
